The conditions of the series: from C=Cc1ccc(N2C(=O)N=C(NC3CCCCC3)C23CCN(Cc2ccc(I)cc2)CC3)cc1; cc_pd bond; 2 steps.

SMILES strings stand for the structures.

As for `O=C1N=C(NC2CCCCC2)C23CCN(CC2)Cc2ccc(cc2)CCc2ccc(cc2)N13`, the ring closure, yield of all isomers amounted to 2.3%.
